Assay results from PubChem BioAssay (NCI).
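1) Cells in 96-well plates. 2) Compound, 48 h, 5 concentrations. 3) Linear interpolation between surrounding doses. 4) Unreached endpoint = highest concentration. Abbreviation: GI50, concentration required for 50% inhibition of growth. The concentration for full growth arrest is given as TGI.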

Tests used:
Assay in all cases: NCI-60 cell line screen, 48 h
[1] = tested on: HOP-18 NSCLC
[2] = tested on: COLO 205 colon
[3] = tested on: SNB-78 CNS
[4] = tested on: U251 CNS
[5] = tested on: CCRF-CEM leukemia
[6] = tested on: SNB-19 CNS
[7] = tested on: SK-MEL-28 melanoma
[8] = tested on: NCI-H226 lung
[9] = tested on: RXF 393 renal
[10] = tested on: HL-60(TB) leukemia
[11] = tested on: KM12 colon
[12] = tested on: HT29 colon
[13] = tested on: SF-295 CNS
[14] = tested on: HCT-116 colon
[15] = tested on: UACC-257 melanoma
[16] = tested on: OVCAR-4 ovarian
[17] = tested on: M14 melanoma
[18] = tested on: SK-OV-3 ovarian
[19] = tested on: UO-31 renal
[20] = tested on: EKVX NSCLC
[21] = tested on: HOP-62 NSCLC
[22] = tested on: LXFL 529 NSCLC
[23] = tested on: SK-MEL-5 melanoma
[24] = tested on: A549 NSCLC
[25] = tested on: UACC-62 melanoma
[26] = tested on: OVCAR-5 ovarian
[27] = tested on: IGROV1 ovarian
[28] = tested on: LOX IMVI melanoma
[29] = tested on: SN12C renal
[30] = tested on: DLD-1 colon
[31] = tested on: A498 renal
[32] = tested on: RPMI-8226 leukemia
[33] = tested on: KM20L2 colon
[34] = tested on: NCI-H460 lung
[35] = tested on: XF 498 CNS
[36] = tested on: MOLT-4 leukemia
[37] = tested on: SF-268 CNS
[38] = tested on: 786-0 renal
[39] = tested on: HCT-15 colon
[40] = tested on: OVCAR-3 ovarian
[41] = tested on: MALME-3M melanoma
[42] = tested on: NCI-H522 lung
[43] = tested on: ACHN renal
[44] = tested on: NCI-H23 lung
[45] = tested on: SW-620 colon
[46] = tested on: OVCAR-8 ovarian
[47] = tested on: HOP-92 NSCLC
[48] = tested on: DMS 114 small cell lung
[49] = tested on: M19-MEL melanoma
[50] = tested on: CAKI-1 renal
[51] = tested on: DMS 273 small cell lung
[52] = tested on: HCC-2998 colon
[53] = tested on: SK-MEL-2 melanoma
[54] = tested on: SF-539 CNS
[55] = tested on: SNB-75 CNS
[56] = tested on: K-562 leukemia
[57] = tested on: TK-10 renal
[58] = tested on: SR leukemia

SMILES: Nc1ncnc2c1nnn2C1C=C(CO)C(O)C1O (stereo not drawn)
- TGI [1]: > 100 µM
- TGI [2]: > 50.6 µM
- TGI [3]: > 100 µM
- TGI [4]: > 100 µM
- TGI [5]: > 100 µM
- TGI [6]: > 100 µM
- TGI [7]: > 100 µM
- TGI [8]: > 100 µM
- TGI [9]: > 100 µM
- TGI [10]: 28.5 µM
- TGI [11]: > 100 µM
- TGI [12]: > 100 µM
- TGI [13]: > 100 µM
- TGI [14]: > 53.3 µM
- TGI [15]: > 100 µM
- TGI [16]: > 100 µM
- TGI [17]: > 100 µM
- TGI [18]: > 100 µM
- TGI [19]: > 100 µM
- TGI [20]: > 100 µM
- TGI [21]: > 100 µM
- TGI [22]: > 100 µM
- TGI [23]: > 100 µM
- TGI [24]: > 100 µM
- TGI [25]: > 100 µM
- TGI [26]: > 100 µM
- TGI [27]: > 100 µM
- TGI [28]: > 55.3 µM
- TGI [29]: > 82.7 µM
- TGI [30]: > 92.6 µM
- TGI [31]: > 100 µM
- TGI [32]: > 62.7 µM
- TGI [33]: > 100 µM
- TGI [34]: > 100 µM
- TGI [35]: > 100 µM
- TGI [36]: > 100 µM
- TGI [37]: > 100 µM
- TGI [38]: > 100 µM
- TGI [39]: > 100 µM
- TGI [40]: > 100 µM
- TGI [41]: > 100 µM
- TGI [42]: > 100 µM
- TGI [43]: > 100 µM
- TGI [44]: > 100 µM
- TGI [45]: > 63.1 µM
- TGI [46]: > 100 µM
- TGI [47]: > 80.2 µM
- TGI [48]: > 86.2 µM
- TGI [49]: > 100 µM
- TGI [50]: > 100 µM
- TGI [51]: > 100 µM
- TGI [52]: > 100 µM
- TGI [53]: > 100 µM
- TGI [54]: > 100 µM
- TGI [55]: > 96.1 µM
- TGI [56]: > 100 µM
- TGI [57]: > 100 µM

SMILES: CCC1C(=O)OCc2c1cc1n(c2=O)C(CC)c2c-1nc1ccccc1c2Cl (stereo not drawn)
- TGI [1]: 98.2 µM
- TGI [2]: 37 µM
- TGI [3]: > 100 µM
- TGI [4]: 49.4 µM
- TGI [5]: > 100 µM
- TGI [6]: > 100 µM
- TGI [7]: > 100 µM
- TGI [8]: > 100 µM
- TGI [10]: 57.3 µM
- TGI [11]: 96.6 µM
- TGI [12]: 77.1 µM
- TGI [13]: 66 µM
- TGI [15]: 92.6 µM
- TGI [16]: > 100 µM
- TGI [17]: > 100 µM
- TGI [18]: 89 µM
- TGI [19]: > 100 µM
- TGI [20]: 80.4 µM
- TGI [21]: 87.1 µM
- TGI [22]: > 100 µM
- TGI [23]: 40.5 µM
- TGI [24]: > 100 µM
- TGI [25]: > 100 µM
- TGI [26]: 54.6 µM
- TGI [27]: > 100 µM
- TGI [28]: > 100 µM
- TGI [30]: > 100 µM
- TGI [31]: 58.1 µM
- TGI [32]: 50 µM
- TGI [33]: > 100 µM
- TGI [34]: 55.4 µM
- TGI [35]: 66.5 µM
- TGI [36]: > 100 µM
- TGI [37]: > 100 µM
- TGI [38]: 33.9 µM
- TGI [39]: > 100 µM
- TGI [40]: 47.5 µM
- TGI [41]: > 100 µM
- TGI [42]: 35 µM
- TGI [43]: > 100 µM
- TGI [44]: > 100 µM
- TGI [45]: > 100 µM
- TGI [47]: > 100 µM
- TGI [49]: > 100 µM
- TGI [50]: > 100 µM
- TGI [51]: > 100 µM
- TGI [53]: 65.4 µM
- TGI [54]: 41.1 µM
- TGI [56]: > 100 µM
- TGI [57]: > 100 µM

SMILES: CC(=O)[CH-]C(=O)Nc1ccccc1.CC(=O)[CH-]C(=O)Nc1ccccc1.CC[O-].CC[O-].[Ti+4]
- GI50 [1]: > 100 µM
- TGI [1]: > 100 µM
- GI50 [2]: > 100 µM
- TGI [2]: > 100 µM
- GI50 [3]: > 100 µM
- TGI [3]: > 100 µM
- GI50 [4]: > 100 µM
- TGI [4]: > 100 µM
- GI50 [5]: > 100 µM
- TGI [5]: > 100 µM
- GI50 [6]: > 100 µM
- TGI [6]: > 100 µM
- GI50 [7]: > 100 µM
- TGI [7]: > 100 µM
- GI50 [8]: > 100 µM
- TGI [8]: > 100 µM
- GI50 [9]: > 100 µM
- TGI [9]: > 100 µM
- GI50 [11]: > 100 µM
- TGI [11]: > 100 µM
- GI50 [12]: > 100 µM
- TGI [12]: > 100 µM
- GI50 [13]: > 100 µM
- TGI [13]: > 100 µM
- GI50 [14]: > 100 µM
- TGI [14]: > 100 µM
- GI50 [15]: > 100 µM
- TGI [15]: > 100 µM
- GI50 [16]: > 100 µM
- TGI [16]: > 100 µM
- GI50 [17]: > 100 µM
- TGI [17]: > 100 µM
- GI50 [18]: > 100 µM
- TGI [18]: > 100 µM
- GI50 [19]: > 100 µM
- TGI [19]: > 100 µM
- GI50 [20]: > 100 µM
- TGI [20]: > 100 µM
- GI50 [21]: > 100 µM
- TGI [21]: > 100 µM
- GI50 [23]: > 100 µM
- TGI [23]: > 100 µM
- GI50 [24]: > 100 µM
- TGI [24]: > 100 µM
- GI50 [25]: > 100 µM
- TGI [25]: > 100 µM
- GI50 [26]: > 100 µM
- TGI [26]: > 100 µM
- GI50 [27]: > 100 µM
- TGI [27]: > 100 µM
- GI50 [28]: > 100 µM
- TGI [28]: > 100 µM
- GI50 [29]: > 100 µM
- TGI [29]: > 100 µM
- GI50 [30]: > 100 µM
- TGI [30]: > 100 µM
- GI50 [31]: > 100 µM
- TGI [31]: > 100 µM
- GI50 [33]: > 100 µM
- TGI [33]: > 100 µM
- GI50 [34]: > 100 µM
- TGI [34]: > 100 µM
- GI50 [36]: > 100 µM
- TGI [36]: > 100 µM
- GI50 [37]: > 100 µM
- TGI [37]: > 100 µM
- GI50 [38]: > 100 µM
- TGI [38]: > 100 µM
- GI50 [39]: > 100 µM
- TGI [39]: > 100 µM
- GI50 [40]: > 100 µM
- TGI [40]: > 100 µM
- GI50 [41]: > 100 µM
- TGI [41]: > 100 µM
- GI50 [58]: > 100 µM
- TGI [58]: > 100 µM
- GI50 [42]: > 100 µM
- TGI [42]: > 100 µM
- GI50 [43]: > 100 µM
- TGI [43]: > 100 µM
- GI50 [44]: > 100 µM
- TGI [44]: > 100 µM
- GI50 [45]: > 100 µM
- TGI [45]: > 100 µM
- GI50 [46]: > 100 µM
- TGI [46]: > 100 µM
- GI50 [47]: > 100 µM
- TGI [47]: > 100 µM
- GI50 [48]: > 100 µM
- TGI [48]: > 100 µM
- GI50 [49]: > 100 µM
- TGI [49]: > 100 µM
- GI50 [50]: > 100 µM
- TGI [50]: > 100 µM
- GI50 [52]: > 100 µM
- TGI [52]: > 100 µM
- GI50 [53]: > 100 µM
- TGI [53]: > 100 µM
- GI50 [54]: > 100 µM
- TGI [54]: > 100 µM
- GI50 [55]: 61.2 µM
- TGI [55]: > 100 µM
- GI50 [56]: > 100 µM
- TGI [56]: > 100 µM
- GI50 [57]: > 100 µM
- TGI [57]: > 100 µM
